One molecule from patent US20180036420A1, “METHODS FOR ENHANCING THE DELIVERY OF MOLECULES ACROSS THE BLOOD BRAIN BARRIER” (LAM Therapeutics, Inc., priority 2016, published 2018) can be followed below.

The test system of experiment [1] is comprehensive panel of kinases (456 kinases). Briefly: Kinase panel binding screen (456 kinases, PIKfyve not included). As to conditions: screening concentration 1 μM. The source says:
Next, apilimod was screened against a comprehensive panel of kinases (PIKfyve not included).

The subject of experiment [2] is PI(3,5)P2 in H4 neuroglioma cells. Nature of the experiment: Immunostaining of PI(3,5)P2 in H4 neuroglioma cells. Type of experiment: cell-based, human. To be noted: after 24 h. The source says:
(§1) PIKfyve produces the lipid products PI(3,5)P2 and PI5P, which in turn serve to establish membrane identity and control endolysosomal dynamics. Studies have shown that the PI(3,5)P2 depletion arising from inhibition of PIKfyve produces a swollen endolysosome phenotype. […] This phenotype was reversible, and cell lines reverted to normal appearance within 3-4 days after drug removal.

A further experiment has as its system H4 neuroglioma cells. Nature of the experiment: DIC imaging of endolysosomal (vacuole) phenotype in H4 neuroglioma cells. The format is cell-based, human.
Description: FIG. 4: Left: DIC images of H4 transduced with either non-targeting shRNA (control) or hairpin targeted to the PIKFYVE gene (shPIKFYVE). Right: Viability of H4 cells after the induction of either control or PIKFYVE shRNA with doxycycline.
as §1

As to `Cc1cccc(/C=N/Nc2cc(N3CCOCC3)nc(OCCc3ccccn3)n2)c1` [apilimod], the “binding to kinases of the panel” value in experiment [1] was “did not bind to any of the 456 kinases tested”. Further, the “decrease of PI(3,5)P2” value in experiment [2] was roughly 70%. Also, the “endolysosomal (vacuole) phenotype” value in the experiment with H4 neuroglioma cells (H4 neuroglioma cells, 100 nM apilimod, 24 hrs (FIG. 3)) was “striking swollen endolysosomal (vacuole) phenotype”. Also, the “time to revert to normal appearance after drug removal” value in the experiment on H4 neuroglioma cells (after drug removal) lay in the range of 3 to 4 days.
